From patent US6593365B1, “Diflunisal esters and related compounds” (The University of Queensland, priority 1997, dated 2003)
Marks after values point to notes of the source that are not given here.

Legend:
[1] = Maximum solubility in 2% BSA Krebs-Henseleit buffer (pH 7.4); format: physicochemical; settings: 25 1° C.
Excerpt: The intrinsic solubility of diflunisal esters is extremely low (TABLE 2). The more lipophilic the analogue, the higher the solubility of solute under these conditions.

[2] = test system: in-situ perfused rat liver; assay: In-situ rat liver perfusions, hepatic extraction (Example 4); format: in vitro ADME; settings: hepatic extraction=1- hepatic availability (F)
Procedure: The hepatic availability (F) for the O-acyl esters of SA and DF was determined using a once through in-situ perfused rat liver preparation (Mellick and Roberts, 1996, J Pharm Pharmacol 48:738-743). Liver was perfused with protein-free Krebs-Henseleit buffer at 30 mL/min for aspirin analogues and with Krebs-Henseleit buffer containing 2% BSA for diflunisal esters studies. Since the solubilities of the diflunisal esters in protein-free media were very low, 2% BSA were used to help to solubilize these compounds. Briefly, 50 μL of a saturated solution of the particular O-acyl SA or DF in Krebs-Henseleit buffer was injected as a bolus into the portal vein cannula. Perfusate outflow samples have collected via a fraction collector over 3 min. 100 μL of these samples was assayed by HPLC to determine the residual concentration of presented ester and the quantity of phenolic metabolite (SA or DF) collected from the perfused liver. The HPLC assay was a modification of the method used by Owen et al. (1987, J Chrom B Biomed Appl 416 293-302) and Rumble et al. (1981, J Chrom 225 252-260).
The hepatic availability (F) was calculated from the ratio of the area under the first moment curve, i.e., outflow concentration time-time profile to the area under the curve for the salicylate phenolic esters, with the assistance of the Moments Calculator 2.2 program for Macintosh computer developed by Robert Purves (1994, J Pharm Sci 83:202-205).

[3] = test system: human platelet rich plasma; assay: Platelet aggregation induced by arachidonic acid; format: cell-based; settings: compound 600 µM, 37° C., arachidonic acid 200 µM
Procedure, shortened: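 Citrated human PRP ([…]) preincubated with compound 3–45 min at 37 °C under stirring, then challenged with 200 µM arachidonic acid (final). Aggregation quantified as area under the turbidimetric curve; non-responding samples given 20 µM ADP to verify platelet viability.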

[4] = molecular target: T1, BSA (bovine serum albumin) (Bos taurus, UniProt P02769); assay: Protein binding by ultrafiltration in 2% BSA Krebs buffer; format: in vitro ADME; settings: 2% BSA Krebs-Henseleit buffer pH 7.4, 37° C.; slope of Scatchard plot
T1 construct: BSA (bovine serum albumin, fraction V, Sigma); purchased Sigma; host or cells: bovine serum (fraction V)
Procedure: These experiments were carried out in Krebs-Henseleit buffer containing 2% w/v BSA (pH 7.4) and incubated at 37° C. for 30 minutes.
A known concentration of the ethanolic (≲1%) aspirin analogue or diflunisal ester stock solution was added to the 2% BSA Krebs solution to make final concentrations of 125 μM, 250 μM and 500 μM.
The unbound fraction (fu) of parent drug and its hydrolysis product were investigated using ultra-filtration: A 1.0 mL aliquot sample (in triplicate) was placed in a ultrafiltration tube (MPS-1, micro-partition system, Amicon) and centrifuged at 3000 g for 10 minutes. The ultra-filtrate was then assayed for parent drug and its hydrolysis product by HPLC.
To eliminate possible errors caused by hydrolysis, identical samples were placed in normal tubes and subjected to the same procedure. This control group (also in triplicate) was used to adjust for the percentage of hydrolysis in the ultra-filtrate under the experimental conditions.
The fu was determined as the ratio of the free concentration to total concentration of solutes. The binding constant (K) was determined from the slope of a Scatchard plot using following equation:
[Db]/[D]=−K[Db]vK[Pt] (3)
where [Db] is the concentration of bound drug, [D] is the concentration of drug, [Pt] is the concentration of total protein, and v is the number of independent binding sites available. This equation is plotted as the ratio [Db]/[D] versus [Db] and in this way the binding constant (K) is determined from the slope while vK[Pt] is determined from the intercept (Martin, 1983).

[5] = test system: superoxide generated from xanthine oxidase plus xanthine reaction; assay: Xanthine oxidase plus xanthine-induced chemiluminescence; format: biochemical; parameters: dose or concentration left out as unconfirmed; settings: X: CL induced by xanthine oxidase plus xanthine
Procedure: To clarify the role of aspirin analogues and diflunisal esters in free radicals scavenging, the Fenton's reagent was replaced by an artificial superoxide generating system in the CL inhibition studies. This cell-free system consisted of 100 μg/mL of xanthine oxidase (Sigma) plus 0.5 μM xanthine (Sigma) (Rosen and Klebanoff, 1976, J Clin Invest 58 50-60; Cheson et al., 1976, J Clin Invest 58 789-796).
CL measurements were always done in triplicate and Student's t-test used to assess the statistical significance of the difference between measurements.

[6] = 2% BSA in Krebs-Henseleit buffer as perfusate
[7] = protein-free Krebs-Henseleit buffer as perfusate

T1 sequence (P02769 25-607): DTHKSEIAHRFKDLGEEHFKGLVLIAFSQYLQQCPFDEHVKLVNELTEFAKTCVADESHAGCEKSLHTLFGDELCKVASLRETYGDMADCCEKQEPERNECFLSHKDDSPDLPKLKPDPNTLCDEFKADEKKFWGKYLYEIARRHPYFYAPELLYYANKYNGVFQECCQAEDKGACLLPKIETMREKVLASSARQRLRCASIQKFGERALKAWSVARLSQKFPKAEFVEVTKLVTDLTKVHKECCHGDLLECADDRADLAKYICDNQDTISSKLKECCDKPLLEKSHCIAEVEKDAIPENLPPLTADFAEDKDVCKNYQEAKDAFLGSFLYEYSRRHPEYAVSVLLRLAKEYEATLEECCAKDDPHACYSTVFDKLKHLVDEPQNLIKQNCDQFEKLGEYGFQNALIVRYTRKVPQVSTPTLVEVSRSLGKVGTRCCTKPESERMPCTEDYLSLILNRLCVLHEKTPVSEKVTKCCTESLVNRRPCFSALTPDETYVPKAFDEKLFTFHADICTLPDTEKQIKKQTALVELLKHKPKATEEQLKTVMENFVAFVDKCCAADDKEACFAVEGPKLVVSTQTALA

CC(=O)Oc1ccc(-c2ccc(F)cc2F)cc1C(=O)O [Compound C2D, acetyldiflunisal]
Maximum solubility [1]: 7.57 mM | Maximum solubility ([1]; mean standard deviation (n=3)): 2200 ± 70 µg/mL | Hepatic extraction [2, 6]: 0.49 | Platelet Aggregation (% of control) ([3]; preincubation 3 minutes): 92.3 ± 0.5 % of control | Platelet Aggregation (% of control) ([3]; preincubation 5 minutes): 67.3 ± 0.9 % of control | Platelet Aggregation (% of control) ([3]; preincubation 8 minutes): 27.9 ± 1.1 % of control | Platelet Aggregation (% of control) ([3]; preincubation 10 minutes): 0 % of control | Platelet Aggregation (% of control) ([3]; preincubation 12 minutes): 0 % of control | Platelet Aggregation (% of control) ([3]; preincubation 15 minutes): 0 % of control | Platelet Aggregation (% of control) ([3]; preincubation 20 minutes): 0 % of control | Platelet Aggregation (% of control) ([3]; preincubation 25 minutes): 0 % of control | Platelet Aggregation (% of control) ([3]; preincubation 45 minutes): 0 % of control | Protein binding constant (K) [4]: 2077 L/mol | CL inhibition (%) [5]: 0.5 ± 0.0%

CCCC(=O)Oc1ccc(-c2ccc(F)cc2F)cc1C(=O)O [Compound C4D, n-butanoyldiflunisal]
Maximum solubility [1]: 12.38 mM | Maximum solubility ([1]; mean standard deviation (n=3)): 3960 ± 80 µg/mL | Hepatic extraction [2, 6]: 0.66 | Platelet Aggregation (% of control) ([3]; preincubation 3 minutes): 96.1 ± 0.3 % of control | Platelet Aggregation (% of control) ([3]; preincubation 5 minutes): 90.3 ± 2.1 % of control | Platelet Aggregation (% of control) ([3]; preincubation 8 minutes): 73.9 ± 0.7 % of control | Platelet Aggregation (% of control) ([3]; preincubation 10 minutes): 57.3 ± 0.1 % of control | Platelet Aggregation (% of control) ([3]; preincubation 12 minutes): 31.8 ± 0.4 % of control | Platelet Aggregation (% of control) ([3]; preincubation 15 minutes): 0 % of control | Platelet Aggregation (% of control) ([3]; preincubation 20 minutes): 0 % of control | Platelet Aggregation (% of control) ([3]; preincubation 25 minutes): 0 % of control | Platelet Aggregation (% of control) ([3]; preincubation 45 minutes): 0 % of control | Protein binding constant (K) [4]: 2365 L/mol | CL inhibition (%) [5]: 0.6 ± 0.1%

CCCC(=O)Oc1ccccc1C(=O)O [Compound C4SA, n-butanoylsalicylic acid]
Hepatic extraction [2, 7]: 0.60 | Platelet Aggregation (% of control) ([3]; preincubation 3 minutes): 29.5 ± 1.5^d % of control | Platelet Aggregation (% of control) ([3]; preincubation 5 minutes): 0 % of control | Platelet Aggregation (% of control) ([3]; preincubation 8 minutes): 0 % of control | Platelet Aggregation (% of control) ([3]; preincubation 10 minutes): 0 % of control | Platelet Aggregation (% of control) ([3]; preincubation 12 minutes): 0 % of control | Platelet Aggregation (% of control) ([3]; preincubation 15 minutes): 0 % of control | Platelet Aggregation (% of control) ([3]; preincubation 20 minutes): 0 % of control | Platelet Aggregation (% of control) ([3]; preincubation 25 minutes): 0 % of control | Platelet Aggregation (% of control) ([3]; preincubation 45 minutes): 0 % of control | CL inhibition (%) [5]: 0.3 ± 0.1%

CCCCC(=O)Oc1ccc(-c2ccc(F)cc2F)cc1C(=O)O [Compound C5D, n-pentanoyldiflunisal]
Maximum solubility [1]: 20.90 mM | Maximum solubility ([1]; mean standard deviation (n=3)): 6980 ± 150 µg/mL | Hepatic extraction [2, 6]: 0.62 | Platelet Aggregation (% of control) ([3]; preincubation 3 minutes): 97.1 ± 0.1 % of control | Platelet Aggregation (% of control) ([3]; preincubation 5 minutes): 95.3 ± 0.7 % of control | Platelet Aggregation (% of control) ([3]; preincubation 8 minutes): 90.6 ± 0.9 % of control | Platelet Aggregation (% of control) ([3]; preincubation 10 minutes): 87.3 ± 3.1 % of control | Platelet Aggregation (% of control) ([3]; preincubation 12 minutes): 75.9 ± 0.1 % of control | Platelet Aggregation (% of control) ([3]; preincubation 15 minutes): 57.5 ± 1.7 % of control | Platelet Aggregation (% of control) ([3]; preincubation 20 minutes): 0 % of control | Platelet Aggregation (% of control) ([3]; preincubation 25 minutes): 0 % of control | Platelet Aggregation (% of control) ([3]; preincubation 45 minutes): 0 % of control | Protein binding constant (K) [4]: 2707 L/mol | CL inhibition (%) [5]: 0.8 ± 0.0%

CCCCC(=O)Oc1ccccc1C(=O)O [Compound C5SA, n-pentanoylsalicylic acid]
Hepatic extraction [2, 7]: 0.74 | Platelet Aggregation (% of control) ([3]; preincubation 3 minutes): 63.5 ± 1.5 % of control | Platelet Aggregation (% of control) ([3]; preincubation 5 minutes): 41.3 ± 1.1 % of control | Platelet Aggregation (% of control) ([3]; preincubation 8 minutes): 0 % of control | Platelet Aggregation (% of control) ([3]; preincubation 10 minutes): 0 % of control | Platelet Aggregation (% of control) ([3]; preincubation 12 minutes): 0 % of control | Platelet Aggregation (% of control) ([3]; preincubation 15 minutes): 0 % of control | Platelet Aggregation (% of control) ([3]; preincubation 20 minutes): 0 % of control | Platelet Aggregation (% of control) ([3]; preincubation 25 minutes): 0 % of control | Platelet Aggregation (% of control) ([3]; preincubation 45 minutes): 0 % of control | Protein binding constant (K) [4]: 1525 L/mol | CL inhibition (%) [5]: 0.3 ± 0.0%

CCCCCC(=O)Oc1ccc(-c2ccc(F)cc2F)cc1C(=O)O [Compound C6D, n-hexanoyldiflunisal]
Maximum solubility [1]: 44.77 mM | Maximum solubility ([1]; mean standard deviation (n=3)): 15580 ± 300 µg/mL | Hepatic extraction [2, 6]: 0.62 | Platelet Aggregation (% of control) ([3]; preincubation 3 minutes): 97.2 ± 0.2 % of control | Platelet Aggregation (% of control) ([3]; preincubation 5 minutes): 94.7 ± 0.3 % of control | Platelet Aggregation (% of control) ([3]; preincubation 8 minutes): 93.3 ± 0.2 % of control | Platelet Aggregation (% of control) ([3]; preincubation 10 minutes): 90.1 ± 2.1 % of control | Platelet Aggregation (% of control) ([3]; preincubation 12 minutes): 89.3 ± 0.1 % of control | Platelet Aggregation (% of control) ([3]; preincubation 15 minutes): 71.7 ± 1.9 % of control | Platelet Aggregation (% of control) ([3]; preincubation 20 minutes): 45.6 ± 0.5 % of control | Platelet Aggregation (% of control) ([3]; preincubation 25 minutes): 0 % of control | Platelet Aggregation (% of control) ([3]; preincubation 45 minutes): 0 % of control | Protein binding constant (K) [4]: 2995 L/mol | CL inhibition (%) [5]: 0.7 ± 0.1%

CCCCCC(=O)Oc1ccccc1C(=O)O [Compound C6SA, n-hexanoylsalicylic acid]
Hepatic extraction [2, 7]: 0.98 | Platelet Aggregation (% of control) ([3]; preincubation 3 minutes): 90.1 ± 2.2 % of control | Platelet Aggregation (% of control) ([3]; preincubation 5 minutes): 70.5 ± 3.1 % of control | Platelet Aggregation (% of control) ([3]; preincubation 8 minutes): 39.9 ± 1.1 % of control | Platelet Aggregation (% of control) ([3]; preincubation 10 minutes): 0 % of control | Platelet Aggregation (% of control) ([3]; preincubation 12 minutes): 0 % of control | Platelet Aggregation (% of control) ([3]; preincubation 15 minutes): 0 % of control | Platelet Aggregation (% of control) ([3]; preincubation 20 minutes): 0 % of control | Platelet Aggregation (% of control) ([3]; preincubation 25 minutes): 0 % of control | Platelet Aggregation (% of control) ([3]; preincubation 45 minutes): 0 % of control | Protein binding constant (K) [4]: 2071 L/mol | CL inhibition (%) [5]: 0.2 ± 0.0%

O=C(O)c1cc(-c2ccc(F)cc2F)ccc1O [DF, 2′,4′-difluoro-4-hydroxy-3-biphenylcarboxylic acid, reference compound]
Hepatic extraction [2, 6]: 0.38 | CL inhibition (%) [5]: 0.4 ± 0.1%

O-acetylsalicylic acid [Compound C2SA, reference compound]
Hepatic extraction [2, 7]: 0.15 | Platelet Aggregation (% of control) ([3]; preincubation 3 minutes): 0 % of control | Platelet Aggregation (% of control) ([3]; preincubation 5 minutes): 0 % of control | Platelet Aggregation (% of control) ([3]; preincubation 8 minutes): 0 % of control | Platelet Aggregation (% of control) ([3]; preincubation 10 minutes): 0 % of control | Platelet Aggregation (% of control) ([3]; preincubation 12 minutes): 0 % of control | Platelet Aggregation (% of control) ([3]; preincubation 15 minutes): 0 % of control | Platelet Aggregation (% of control) ([3]; preincubation 20 minutes): 0 % of control | Platelet Aggregation (% of control) ([3]; preincubation 25 minutes): 0 % of control | Platelet Aggregation (% of control) ([3]; preincubation 45 minutes): 0 % of control | Protein binding constant (K) [4]: 192 L/mol | CL inhibition (%) [5]: 0.4 ± 0.1%
